Data taken from ChEMBL document CHEMBL5390235, “Reading and erasing of histone crotonyllysine mimics by the AF9 YEATS domain and SIRT2 deacylase” (Bioorg Med Chem, 2023).
Calls of active or inactive are those of the source. No cut-off for these calls is given here.

Columns and labels:
[1] = molecular target: T1, NAD-dependent protein deacetylase sirtuin-2 (Homo sapiens) (UniProt Q8IXJ6); experiment: Induction of recombinant human SIRT2 (50 to 356 residues) deacetylase activity measured after 6 hrs in presence of NAD+ by MALDI-TOF-MS analysis; design: concentration or dose not given beside the values
T1 sequence (whole entry): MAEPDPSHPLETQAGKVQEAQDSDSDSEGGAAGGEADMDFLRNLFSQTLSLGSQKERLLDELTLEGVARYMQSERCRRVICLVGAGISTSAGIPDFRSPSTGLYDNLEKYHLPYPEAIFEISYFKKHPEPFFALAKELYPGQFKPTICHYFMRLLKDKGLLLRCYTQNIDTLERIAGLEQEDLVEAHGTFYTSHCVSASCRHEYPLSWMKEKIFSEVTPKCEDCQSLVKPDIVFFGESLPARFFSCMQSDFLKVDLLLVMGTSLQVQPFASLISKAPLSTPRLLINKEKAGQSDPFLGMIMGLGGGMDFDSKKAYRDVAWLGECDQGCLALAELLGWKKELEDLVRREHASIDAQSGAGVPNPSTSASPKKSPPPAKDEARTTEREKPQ

Protein AF-9 = molecular target: T2, Protein AF-9 (Homo sapiens, UniProt P42568); experiment: Binding affinity to N-terminal His-tagged recombinant human AF9 YEATS domain (1 to 138 residues) expressed in Escherichia coli 2(DE3)pLysS cells assessed as dissociation constant by ITC assay
T2 sequence (P42568 whole entry): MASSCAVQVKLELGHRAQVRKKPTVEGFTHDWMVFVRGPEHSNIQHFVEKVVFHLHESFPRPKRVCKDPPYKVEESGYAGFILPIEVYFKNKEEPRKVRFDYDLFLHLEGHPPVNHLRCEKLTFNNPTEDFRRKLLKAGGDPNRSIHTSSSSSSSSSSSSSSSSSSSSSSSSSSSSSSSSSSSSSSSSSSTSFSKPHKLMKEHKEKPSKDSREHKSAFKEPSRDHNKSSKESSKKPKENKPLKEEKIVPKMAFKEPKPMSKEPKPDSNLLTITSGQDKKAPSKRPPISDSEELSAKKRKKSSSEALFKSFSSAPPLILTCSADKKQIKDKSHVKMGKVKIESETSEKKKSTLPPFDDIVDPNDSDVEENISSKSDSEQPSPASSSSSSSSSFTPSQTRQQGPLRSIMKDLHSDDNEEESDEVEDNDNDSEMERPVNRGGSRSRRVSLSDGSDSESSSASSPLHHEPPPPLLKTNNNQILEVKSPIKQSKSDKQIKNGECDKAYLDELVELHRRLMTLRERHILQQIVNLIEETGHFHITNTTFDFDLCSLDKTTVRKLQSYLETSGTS

[2] = molecular target: T1, NAD-dependent protein deacetylase sirtuin-2 (Homo sapiens); experiment: Induction of recombinant human SIRT2 (50 to 356 residues) deacetylase activity measured after 24 hrs in presence of NAD+ by MALDI-TOF-MS analysis

Row | SMILES | Activity [1] | Kd (Protein AF-9) | Activity ([2]; filed as activator) | Activity ([1]; filed as activator) | Activity [2]
1 | CC#CC(=O)NCCCC[C@H](NC(=O)[C@H](CCCNC(=N)N)NC(=O)[C@H](C)NC(=O)[C@@H](NC(=O)[C@H](CCC(N)=O)NC(=O)[C@H](CCCCN)NC(=O)[C@@H](N)[C@@H](C)O)[C@@H](C)O)C(=O)N[C@@H](CO)C(=O)N[C@H](C(=O)NCC(=O)NCC(=O)N[C@@H](CCCCN)C(=O)N[C@@H](C)C(=O)O)[C@@H](C)O | 30% | 20.5 µM | 50% |  | 
2 | C=CC(=O)NCCCC[C@H](NC(=O)[C@H](CCCNC(=N)N)NC(=O)[C@H](C)NC(=O)[C@@H](NC(=O)[C@H](CCC(N)=O)NC(=O)[C@H](CCCCN)NC(=O)[C@@H](N)[C@@H](C)O)[C@@H](C)O)C(=O)N[C@@H](CO)C(=O)N[C@H](C(=O)NCC(=O)NCC(=O)N[C@@H](CCCCN)C(=O)N[C@@H](C)C(=O)O)[C@@H](C)O |  | 13.7 µM |  | 55% | 
3 | C[C@H](NC(=O)[C@H](CCCCN)NC(=O)CNC(=O)CNC(=O)[C@@H](NC(=O)[C@H](CO)NC(=O)[C@H](CCCCNC(=O)/C=C/c1ccccc1)NC(=O)[C@H](CCCNC(=N)N)NC(=O)[C@H](C)NC(=O)[C@@H](NC(=O)[C@H](CCC(N)=O)NC(=O)[C@H](CCCCN)NC(=O)[C@@H](N)[C@@H](C)O)[C@@H](C)O)[C@@H](C)O)C(=O)O |  | 5.1 µM |  |  | inactive
4 | CC(C)=CC(=O)NCCCC[C@H](NC(=O)[C@H](CCCNC(=N)N)NC(=O)[C@H](C)NC(=O)[C@@H](NC(=O)[C@H](CCC(N)=O)NC(=O)[C@H](CCCCN)NC(=O)[C@@H](N)[C@@H](C)O)[C@@H](C)O)C(=O)N[C@@H](CO)C(=O)N[C@H](C(=O)NCC(=O)NCC(=O)N[C@@H](CCCCN)C(=O)N[C@@H](C)C(=O)O)[C@@H](C)O | 2% | 159 µM |  |  | 12%
5 | C[C@H](NC(=O)[C@H](CCCCN)NC(=O)CNC(=O)CNC(=O)[C@@H](NC(=O)[C@H](CO)NC(=O)[C@H](CCCCNC(=O)/C=C/C(F)(F)F)NC(=O)[C@H](CCCNC(=N)N)NC(=O)[C@H](C)NC(=O)[C@@H](NC(=O)[C@H](CCC(N)=O)NC(=O)[C@H](CCCCN)NC(=O)[C@@H](N)[C@@H](C)O)[C@@H](C)O)[C@@H](C)O)C(=O)O |  | 48.5 µM |  |  | inactive
6 | CC/C=C/C(=O)NCCCC[C@H](NC(=O)[C@H](CCCNC(=N)N)NC(=O)[C@H](C)NC(=O)[C@@H](NC(=O)[C@H](CCC(N)=O)NC(=O)[C@H](CCCCN)NC(=O)[C@@H](N)[C@@H](C)O)[C@@H](C)O)C(=O)N[C@@H](CO)C(=O)N[C@H](C(=O)NCC(=O)NCC(=O)N[C@@H](CCCCN)C(=O)N[C@@H](C)C(=O)O)[C@@H](C)O |  | 13.6 µM |  | 75% | 
7 | C/C=C/C(=O)NCCCC[C@H](NC(=O)[C@H](CCCNC(=N)N)NC(=O)[C@H](C)NC(=O)[C@@H](NC(=O)[C@H](CCC(N)=O)NC(=O)[C@H](CCCCN)NC(=O)[C@@H](N)[C@@H](C)O)[C@@H](C)O)C(=O)N[C@@H](CO)C(=O)N[C@H](C(=O)NCC(=O)NCC(=O)N[C@@H](CCCCN)C(=O)N[C@@H](C)C(=O)O)[C@@H](C)O |  | 7.8 µM |  | 60% | 
8 | C/C=C(\C)C(=O)NCCCC[C@H](NC(=O)[C@H](CCCNC(=N)N)NC(=O)[C@H](C)NC(=O)[C@@H](NC(=O)[C@H](CCC(N)=O)NC(=O)[C@H](CCCCN)NC(=O)[C@@H](N)[C@@H](C)O)[C@@H](C)O)C(=O)N[C@@H](CO)C(=O)N[C@H](C(=O)NCC(=O)NCC(=O)N[C@@H](CCCCN)C(=O)N[C@@H](C)C(=O)O)[C@@H](C)O | 39% | 46.5 µM |  |  | 
